Source: patent publication US20260285847A1, “SYMMETRIC AMINOINDOLE-LINKED TRIAZINE FOR A DUAL EFFECT ON ALPHA-SYNUCLEIN AND TAU ISOFORM 2N4R FIBRILLIZATION” (Purdue Research Foundation, priority 2023, published 2026)
“Also recorded” adds a separate entry of the source.

Legend:
α-syn [1] = target: T1, α-syn (Homo sapiens, UniProt P37840); test: Transmission electron microscopy (TEM) of α-syn fibrils; assay type: biochemical; details: protein 60 μM, compound 600 μM (1:10), 24 hours at 37° C.
T1 construct: purchased rPeptide
Description: To confirm the general anti-fibrillar effect of compound 10, transmission electron microscopy (TEM) was used as an orthogonal assay. After incubating recombinant proteins (at 60 μM) with 600 μM compound 10 for 24 hours at 37° C., TEM was utilized to detect fibril formation.^32 A volume of 10 μL was applied on a 400-mesh Formvar-carbon-coated copper grid (Electron Microscopy Sciences, Hatfield, PA). The grids were incubated for 1 minute and washed three times with distilled water. They were carefully air-dried and incubated for 1 minute in a fresh solution of 1% uranyl acetate. Samples were air-dried and observed using a transmission microscope. Visualization of the grids was performed with transmission electron microscopy (JEOL 1400 Flash, Japan). Acquisition of pictures was performed with the following settings: accelerating voltage of 100 kV and magnification of 40k.

alpha-synuclein (α-syn) = target: T2, alpha-synuclein (α-syn) (Homo sapiens, UniProt P37840); test: Thioflavin T (ThT) fluorescence assay of α-syn fibril formation; assay type: biochemical; details: compound 100 μM
T2 construct: purchased rPeptide
Description: Thioflavin fluorescence assays. Thioflavin fluorescence assays were used to monitor fibril formation of recombinant α-syn, tau isoform 2N4R, treated with control DMSO and different compounds. Kinetics of α-syn fibrillization were performed using thioflavin T (ThT) as published previously.^32′ ^37 The fluorescence emission experiments were performed with the excitation and emission wavelengths set at 440 and 485 nm, respectively, with a Synergy HT multi-mode microplate reader (BioTek, Winooski, VT). Samples were measured in three replicates and the experiments were repeated three times using at least two different stock solutions. For each time point, arbitrary units of fluorescence were calculated from the mean values normalized against the maximum value in each completed assay. All results contained in FIG. 1 were presented as mean±SEM.
FIG. 1. Chemical structure, physicochemical descriptors, and the effect of compounds on alpha-synuclein (α-syn) aggregation measured as fluorescence intensity using ThT assay. TPSA, Log P, and Log D were obtained with SwissADME. BBB and pKa were obtained from the Blood-Brain Barrier Prediction Server (https://www.cbligand.org/BBB/) and Chemaxon, respectively. CNS MPO scores were assessed as published previously, The ThT (%) represent the maximum fluorescence intensity obtained at the plateau phase of the kinetics of fibrillization using 6.25 μM of α-syn. Compounds were tested at 100 μM (molar ratio 1:16). BBB, blood-brain barrier; C log D, calculated distribution coefficient at 7.4; C log P, calculated partition coefficient; CNS MPO, Central Nervous System Multi Parameter Optimization; HBA, Hydrogen Bond Acceptor; HBD, Hydrogen Bond Donor; LR5, Lipinski's rule of five; pKa, negative log of acid dissociation constant; ThT, Thioflavin T; TPSA, Topological polar surface area.

tau isoform 2N4R [2] = target: T3, tau isoform 2N4R (Homo sapiens, UniProt P10636); test: PICUP cross-linking assay of tau oligomer formation; assay type: biochemical; details: compound 50 μM; high molecular weight oligomers around 190 kDa
T3 construct: made in house; host or cells: E. coli BL21(DE3)
T3 sequence (P10636 1-441 isoform P10636-8): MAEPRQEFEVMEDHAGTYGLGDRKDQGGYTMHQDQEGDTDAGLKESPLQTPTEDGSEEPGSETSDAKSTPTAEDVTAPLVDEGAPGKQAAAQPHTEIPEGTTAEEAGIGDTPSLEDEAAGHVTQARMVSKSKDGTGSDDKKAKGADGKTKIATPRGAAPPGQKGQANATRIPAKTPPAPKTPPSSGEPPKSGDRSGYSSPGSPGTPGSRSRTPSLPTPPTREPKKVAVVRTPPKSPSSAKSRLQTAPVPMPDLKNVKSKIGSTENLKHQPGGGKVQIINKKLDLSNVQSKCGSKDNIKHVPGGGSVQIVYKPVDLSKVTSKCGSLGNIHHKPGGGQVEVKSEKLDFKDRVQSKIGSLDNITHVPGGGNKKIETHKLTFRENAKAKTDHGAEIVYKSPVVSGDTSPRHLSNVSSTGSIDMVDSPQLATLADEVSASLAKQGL
Description: (§1) Chemical and peptide source. DMSO and thioflavin-T (ThT) were purchased from Alfa Aesar (Ward Hill, MA). Procuration of recombinant α-syn was from rPeptide (WatKinsville, GA). The recombinant p-tau isoform 1N4R was prepared as published previously.^31, 36 Concerning the preparation of tau 2N4R, bacterial expression plasmid consisting of the vector pRK172 carrying a cDNA encoding the human Tau 2N4R isoform was a kind gift of Dr. David Eliezer (Weill Cornell Medicine). For protein expression, E. coli BL21(DE3) cells were transformed with the plasmid and grown in LB media supplemented with ampicillin (100 μg/mL). Protein over-expression was induced by the addition of 1 mM IPTG for 4 h at 37° C., and cells were pelleted by centrifugation at 6,000 g for 15 min at 4° C. The cells were resuspended in lysis buffer (20 mM MES, 400 mM NaCl, 0.2 mM MgCl2, 1 mM EGTA, protease inhibitor cocktail (P8340, Sigma Aldrich), 0.25 mg/mL lysozyme, and 1 μg/mL DNase I, pH 6.8) and lysed by a French press cell disruptor at 4° C., and the lysate was boiled for 20 min. Denatured proteins were pelleted by centrifugation at 30,000 g for 30 min at 4° C., and the supernatant was dialyzed overnight against cation exchange buffer (20 mM MES, 50 mM NaCl, 1 mM MgCl2, 1 mM EGTA, 2 mM DTT, 0.1 mM PMSF, pH 6.8). The dialysate was loaded onto a HiPrep SP HP column, and proteins were eluted with a linear gradient ranging from 50 mM to 1 M NaCl. Fractions containing tau isoform 2N4R were pooled, and the resulting protein solution was dialyzed against PBS (pH 7.4) and stored at −80° C.
PICUP is a technique in which oligomer formation is induced by cross-linking. To induce oligomerization by cross-linking, α-syn (from Rpeptide, LLC) and tau isoform 2N4R were diluted in 10 mM phosphate buffer (pH 7.4) to reach a final concentration of 10 μM. Different compounds were added to the protein solution at a final concentration of 50 μM, resulting in a molar ratio of 1:5. […]

[3] = tested on: M17D-TR/αS3K::YFP neuroblastoma cells; test: α-syn inclusion formation in dox-inducible neuroblastoma cells; assay type: cell-based
Description: The dox-inducible neuroblastoma cell line M17D-TR/αS3K::YFP was used to evaluate the effect of compounds in preventing the formation of inclusion following induction with Dox. Dox-inducible neuroblastoma cells M17D-TR/αS-3K::YFP have been used previously. 96-well plates were used with cellular density of 30,000 cells per well. Compounds were added after 24 h and aS-3K::YFP transgene expression was induced […]. Induction was done by adding 1 μg per mL (final concentration) dox to culture media. Cells were incubated in the Incucyte Zoom 2000 platform (Essen Biosciences) and images (green, bright field) were taken continuously. Endpoint analysis of inclusion formation or growth was performed 48 h after induction (96 h after plating). The Incucyte processing definition ‘Inclusions’ was created as follows: Parameters, Fixed Threshold, Threshold (GCU) 50; Edge Split On, Edge Sensitivity 100; Cleanup, Hole Fill (μm^2): 10, Adjust Size (pixels): 0; Filters, Area (μm^2): max 50, Mean Intensity: min 60, Integrated Intensity: min 2000. […] As described previously for the evaluation of protein expression by SDS-PAGE and Western Blotting in the LiCor system, αS-specific monoclonal antibody 4B12 (Thermofisher, Waltham, MA; 1:1000) and a polyclonal antibody to GAPDH (Sigma-Aldrich, St. Louis, MO, G9545; 1:5000) were used.

α-syn [4] = target: T1, α-syn; test: PICUP cross-linking assay of α-syn oligomer formation; assay type: biochemical; details: compound 50 μM; high molecular weight oligomers around 50 kDa
Description: PICUP is a technique in which oligomer formation is induced by cross-linking. To induce oligomerization by cross-linking, α-syn (from Rpeptide, LLC) and tau isoform 2N4R were diluted in 10 mM phosphate buffer (pH 7.4) to reach a final concentration of 10 μM. Different compounds were added to the protein solution at a final concentration of 50 μM, resulting in a molar ratio of 1:5. To confirm the gradual effect of compounds on the inhibition of α-syn oligomerization, compounds were tested at final concentration of 3.125, 6.25, 12.5, 25, and 50 μM. The controls consisted of samples without light exposition, without Ru(bpy) or ammonium persulfate, and without compound (i.e., 0.125% DMSO). The cross-linking reaction was initiated by the addition of 2 μL of Ru(bpy) (300 μM final concentration) and 2 μL ammonium persulfate (6 mM final concentration).^32 Samples were irradiated immediately. Light exposure was of a 1 second duration for α-syn and a 3 second duration for tau isoform 2N4R, with a 53 W (120 V) incandescent lamp installed in a homemade dark-box. Each tube contained a final volume of 20 μL. After irradiation, 8.3 μL of Laemmli loading buffer containing 15% 0-mercaptoethanol was immediately added to the solution, followed by incubation at 95° C. for 10 min. The cross-linked samples were separated on a 16% SDS-PAGE gel and visualized by Coomassie blue staining.

tau isoform 2N4R [5] = target: T3, tau isoform 2N4R; test: TEM of tau isoform 2N4R fibrils; assay type: biochemical; details: protein 60 μM, compound 600 μM (1:10), 24 hours at 37° C.
Description: as §1
To confirm the general anti-fibrillar effect of compound 10, transmission electron microscopy (TEM) was used as an orthogonal assay. After incubating recombinant proteins (at 60 μM) with 600 μM compound 10 for 24 hours at 37° C., TEM was utilized to detect fibril formation.^32 A volume of 10 μL was applied on a 400-mesh Formvar-carbon-coated copper grid (Electron Microscopy Sciences, Hatfield, PA). The grids were incubated for 1 minute and washed three times with distilled water. […]

tau isoform 2N4R [6] = target: T3, tau isoform 2N4R; test: ThT fluorescence assay of tau isoform 2N4R fibril formation; assay type: biochemical; details: compound 100 μM, tau 2N4R 6 μM, heparin 1.5 μM
Description: as §1

SMILES	α-syn fibril ultrastructure (TEM) (α-syn [1])	inhibition of α-syn aggregation / fibril formation (in words) (alpha-synuclein (α-syn); ThT assay)	tau oligomer formation (PICUP, in words) (tau isoform 2N4R [2])	α-syn expression levels (Western blot) ([3]; compound 10 μM)	α-syn expression levels (Western blot) ([3]; compound 2.5 and 20 μM)	α-syn inclusion formation (punctate YFP signal, in words) ([3]; compound 7: 2.5 to 20 μM, compound 10: 2.5 to 40 μM, readout 96 h after plating, vs 0.1% DMSO)	α-syn oligomer formation (PICUP, in words) (α-syn [4])	tau isoform 2N4R fibril ultrastructure (TEM) (tau isoform 2N4R [5])	tau isoform 2N4R fibrillization (in words) (tau isoform 2N4R [6])	activity at 100 µM (alpha-synuclein (α-syn); α-syn 6.25 μM (molar ratio 1:16), compared with DMSO control, mean±SEM, read-out: ThT fluorescence intensity (FI), maximum at the plateau phase of α-syn fibrillization) [%]	ThT fluorescence intensity (FI), maximum at the plateau phase of α-syn fibrillization (alpha-synuclein (α-syn); α-syn 6.25 μM (molar ratio 1:16), compared with DMSO control, mean±SEM, 100 µM) [%]
c1cc(Oc2ncnc(Oc3cccc4[nH]ccc34)n2)c2cc[nH]c2c1 [Compound 7, 4-{[4-(1H-indol-4-yloxy)-1,3,5-triazin-2-yl]oxy}-1H-indole]	packets of fine fibrils with a few spherical structures encountered on the grid	nonexistent anti-fibrillar activity; also recorded: weak effect on fibril formation	did not reduce the formation of α-syn and tau oligomers	reduced	reduced	very minimal changes in the numbers of inclusion	did not reduce the formation of α-syn and tau oligomers	fibrils surrounded by debris admixed with disrupted fibrils	failed to reduce tau fibril formation		
c1cc(Nc2nc(Nc3cccc4[nH]ccc34)nc(Nc3cccc4[nH]ccc34)n2)c2cc[nH]c2c1 [Compound 25]	rare short fibrils							medium size needle-shaped fibrils		21.5 ± 7.9	
Clc1nc(Nc2ccc3cc[nH]c3c2)nc(Nc2ccc3cc[nH]c3c2)n1 [Compound 24]											−0.3±0.5
